The source of these data is PMC6269910 (Molecules, 2013).

For series [1], the target named is T1, HCV NS5B RNA dependent RNA polymerase (Hepatitis C virus genotype 1b, UniProt P26663).
T1 construct: HCV NS5B RNA dependent RNA polymerase activity
The series is described as follows: NS5B inhibition assay (primer dependent elongation, poly rA-U12). Type of series: biochemical. As for the experimental part:
The compounds 1a–e and 2a–e were reconstituted in DMSO as 50 mM stocks, and serially diluted in DMSO to obtain working stocks. Wedelolactone, a known inhibitor of HCV NS5B activity, was employed as a reference compound. Preliminary screening was carried out at 100 μM to identify a wider range of compounds.
All synthesized compounds were evaluated for their effect on HCV NS5B RNA dependent RNA polymerase activity in primer dependent elongation assays as previously described. Activity of NS5B in the absence of the inhibitor but containing an equivalent amount of DMSO (control reaction) was set at 100% and that in the presence of the inhibitor was quantified relative to this control.

In series [2] the test system is lipid peroxidation in stomach. Nature of the series: Lipid peroxidation in stomach (TBARS). It is filed as in vivo, mice.
Series [3] has as its system acetic acid-induced abdominal constriction. The series is described as follows: Acetic acid-induced writhing (Koster) test. It is filed as in vivo, mice. As for the experimental part:
Test samples, suspended in a mixture of distilled water and 0.5% sodium carboxymethyl cellulose (CMC), were given orally to the animals. The control group animals received the same experimental handling as those of the test groups, except that the drug treatment was replaced with appropriate volumes of the dosing vehicle. […] One hour after oral administration of test sample, each mouse was injected intraperitoneally with 3% (w/v) acetic acid solution (0.1 mL/10 g, bw). Starting 5 min after the acetic acid injection, the number of muscular contractions on mice were counted for a period of 10 min. A significant reduction in the number of writhings by any treatment as compared to the number of writhings in control animals was considered a positive analgesic response. The analgesic activity was expressed as a percentage change from writhing controls. ASA was used as a reference compound and administered at 200 mg/kg.
For orientation: Writhing tests count abdominal constrictions after an irritant is injected.

The test system of series [4] is stomach. The series is described as follows: Gastric-ulcerogenic effect (ulcer score). Type of series: in vivo, mice.
For series [5], the system named is carrageenan-induced hind paw edema. Nature of the series: Carrageenan-induced hind paw edema model. Type of series: in vivo, mice. As to conditions: 25 mg/kg per os. The method, then:
Locally bred balb/c mice of both sexes (30-35 g) were purchased from the animal breeding laboratories of Inonu University ([…], Turkey). The animals were fed a standard pellet diet and water ad libitum in a temperature-controlled room. On the day before the treatments, food was withdrawn, but the animals were allowed free access of water. The allocation of animals to different groups was randomized, and the experiments were carried out under blind conditions. Mice used in the present study were cared for in accordance with the directory of the Inonu University Animal Care Unit, which applies the guidelines of the National Institutes of Health on laboratory animal welfare. Procedures involving animals and their care were conducted in conformity with international laws and policies and animal studies accepted by Inonu University Ethical Council (2011/A17). Test samples, suspended in a mixture of distilled water and 0.5% sodium carboxymethyl cellulose (CMC), were given orally to the animals. The control group animals received the same experimental handling as those of the test groups, except that the drug treatment was replaced with appropriate volumes of the dosing vehicle. […] For the preliminary activity screening, each test group was composed of four mice. […] Because of the daily changing circumstance, we used another control group for each experiment. For the determination of the effects on carrageenan-induced paw oedema, the modified method of Kasahara et al. was employed. One hour after the oral administration of either test sample or dosing vehicle, each mouse was injected with a freshly prepared (0.5 mg/25 μL) suspension of carrageenan (Sigma, St. Louis, MO, USA) in physiological saline (154 mM NaCl). The subplantar tissue of the right hind paw was the injection site for all mice. The contralateral paw (left hind paw) was injected with 25 μL saline solution as the internal control. […] The difference in footpad thickness between the right and left foot indicated the degree of inflammation for each mouse. The change in paw volume, either increase or decrease, was calculated and compared with the control group (dosing vehicle) and analyzed using statistical methods.
Background: The carrageenan paw model is a standard test of acute inflammation.

For series [6], the system named is LPO. The series is described as follows: LPO (TBARS) level in liver, kidney, colon, brain. It is filed as in vivo, mice. As to conditions: celecoxib 25 mg/kg oral, 72 h. As for the experimental part:
(§1) Tissue samples were homogenized with ice-cold 150 mM KCl for the determination of LPO and glutathione (GSH) levels. The LPO levels were assayed by monitoring TBARS formation as described above.

In series [7] the test system is glutathione (GSH). Nature of the series: GSH level in liver, kidney, colon, brain. Type of series: in vivo, mice. The conditions noted are these: celecoxib 25 mg/kg oral, 72 h. As for the experimental part: as §1
Series [8] relates to superoxide dismutase (SOD). The series is described as follows: SOD activity in liver, kidney, colon, brain. It is filed as in vivo, mice. As to conditions: celecoxib 25 mg/kg oral, 72 h. The method, then: SOD is a major antioxidant enzyme found in cells, which protect cells from oxidative stress. SOD activity in the tissue samples was measured according to the previously described method.

For series [9], the system named is myeloperoxidase (MPO). The series is described as follows: MPO activity in liver, kidney, colon, brain. It is filed as in vivo, mice. The conditions noted are these: celecoxib 25 mg/kg oral, 72 h. As for the experimental part:
MPO is an enzyme that is found predominantly in the azurophilic granules of polymorphonuclear leukocytes (PMN). […] MPO activity was measured in tissues in a procedure similar to that documented by […] et al.

The mark [10] stands for this setting: read-out: Anti-NS5B Activity (% Inh., 100 µM).
Where [11] appears, read: brain, series with 1a 100 mg/kg.
Where [12] appears, read: brain, series with 1a 200 mg/kg.
[13] abbreviates: colon, series with 1a 100 mg/kg.
Setting [14] is: colon, series with 1a 200 mg/kg.
Setting [15] is: kidney, series with 1a 100 mg/kg.
The mark [16] stands for this setting: kidney, series with 1a 200 mg/kg.
The mark [17] stands for this setting: liver, series with 1a 100 mg/kg.
Setting [18] is: liver, series with 1a 200 mg/kg.

Like-named read-outs stand apart in the source and are kept apart here.

T1 sequence (P26663 2420-3010): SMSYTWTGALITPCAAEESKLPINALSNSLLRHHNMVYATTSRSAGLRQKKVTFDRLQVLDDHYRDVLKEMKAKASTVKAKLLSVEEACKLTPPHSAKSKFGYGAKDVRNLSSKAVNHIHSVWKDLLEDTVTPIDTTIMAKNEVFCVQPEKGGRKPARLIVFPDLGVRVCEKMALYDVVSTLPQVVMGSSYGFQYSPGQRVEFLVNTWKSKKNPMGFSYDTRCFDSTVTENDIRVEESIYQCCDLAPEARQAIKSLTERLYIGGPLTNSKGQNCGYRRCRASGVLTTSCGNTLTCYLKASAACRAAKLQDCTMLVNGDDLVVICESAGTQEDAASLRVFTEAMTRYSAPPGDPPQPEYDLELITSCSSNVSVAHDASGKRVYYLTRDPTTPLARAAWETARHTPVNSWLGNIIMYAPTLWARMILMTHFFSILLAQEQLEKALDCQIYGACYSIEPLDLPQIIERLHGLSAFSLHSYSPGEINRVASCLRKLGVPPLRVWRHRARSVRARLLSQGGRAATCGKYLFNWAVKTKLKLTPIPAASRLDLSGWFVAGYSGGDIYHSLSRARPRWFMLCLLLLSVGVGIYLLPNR

For orientation: melting point means the temperature, or range, at which the solid turns liquid. As to `Cc1ccc(-c2cc(C(F)(F)F)nn2-c2ccc(S(=O)(=O)NC(=S)Nc3ccccc3)cc2)cc1` [Compound 1b, N-(Phenylcarbamothioyl)-4-[5-(4-methylphenyl)-3-(trifluoromethyl)-1H-pyrazol-1-yl] benzene-sulfonamide], the melting point fell in the range of 251 to 252 °C. Moreover, in series [1] (setting [10]), the inhibition at 100 µM was determined as 53.5%.
Taken in the same sequence, the figures for `Cc1ccc(-c2cc(C(F)(F)F)nn2-c2ccc(S(=O)(=O)/N=C3\SCC(=O)N3c3ccc(C(F)(F)F)cc3)cc2)cc1` [Compound 2e, N-[3-(4-Trifluoromethylphenyl)-4-oxo-1,3-thiazolidin-2-yldene)-4-[5-(4-methylphenyl)-3-(trifluoro-methyl)-1H-pyrazol-1-yl]benzenesulfonamide] were 234 to 235 °C and 9.4%.
The IC50 is the concentration that inhibits the measured activity by half. A higher IC50 goes with lower potency. Consider `Cc1ccc(-c2cc(C(F)(F)F)nn2-c2ccc(S(=O)(=O)NC(=S)NCc3ccccc3)cc2)cc1` [Compound 1c, N-(Benzylcarbamothioyl)-4-[5-(4-methylphenyl)-3-(trifluoromethyl)-1H-pyrazol-1-yl] benzene-sulfonamide], for which the melting point lay in the range of 237 to 240 °C. In series [1] (dose-response, 8–12 concentrations), this molecule yielded an IC50 of 36.2 ± 1.2 µM. In series [1] (setting [10]), the inhibition at 100 µM was determined as 82.3%.
Turning to `CCN1C(=O)CS/C1=N\S(=O)(=O)c1ccc(-n2nc(C(F)(F)F)cc2-c2ccc(C)cc2)cc1` [Compound 2a, N-(3-Ethyl-4-oxo-1,3-thiazolidin-2-yldene)-4-[5-(4-methylphenyl)-3-(trifluoromethyl)-1H-pyrazol-1-yl]benzenesulfonamide], the melting point came out at 282 °C. In [1] (setting [10]), the inhibition at 100 µM was found to be 8.2%.
`CC(=O)Oc1ccccc1C(=O)O` [ASA, acetylsalicylic acid, reference compound] returned a Lipid peroxidation in series [2] (ASA 200 mg/kg) of 436.1 ± 17.1 nmol TBARS/g wet weight. In series [3] (200 mg/kg oral), the “Writhing test (% inh.)” value stood at 74.7% and the “Writhing test (Mean ± SEM)” value is 4.4 ± 0.9. For the same molecule, the Ulcer score in series [4] (ASA 200 mg/kg) is on record as 3/5.
In series [2] (celecoxib 25 mg/kg), `Cc1ccc(-c2cc(C(F)(F)F)nn2-c2ccc(S(N)(=O)=O)cc2)cc1` [Celecoxib, 4-[5-(4-methylphenyl)-3-(trifluoromethyl)-1H-pyrazole-1-yl]benzene-sulfonamide, reference compound] yielded a Lipid peroxidation of 417.8 ± 23.3 nmol TBARS/g wet weight. For the same molecule, the “Swelling in thickness ± SEM” value is 57.0 ± 6.9 × 10^−2 mm in series [5] (90 min), 42.0 ± 3.3 × 10^−2 mm in series [5] (180 min), 94.0 ± 10.4 × 10^−2 mm in series [5] (270 min) and 103.0 ± 7.5 × 10^−2 mm in [5] (360 min). The same molecule returned a percent inhibitory activity in [5] (180 min) of 54.3%. The “Anti-NS5B Activity (% Inh., 100 µM)” value in series [1] (100 µM) was 9.5%. The inhibition at 100 µM in series [1] (read-out: Anti-NS5B Activity (% Inh., 100 µM), 100 µM) was ~10%. Also, the LPO in [6] (setting [11]) was 8.18 ± 2.16 nmol/g tissue; in [6] (setting [12]), 8.26 ± 1.01 nmol/g tissue; in series [6] (setting [13]) it was 7.12 ± 0.26 nmol/g tissue; in series [6] (setting [14]) it was 10.48 ± 2.69 nmol/g tissue; in series [6] (setting [15]), 11.12 ± 2.41 nmol/g tissue; in series [6] (setting [16]), 11.30 ± 2.52 nmol/g tissue. For the same molecule, the LPO is reported as 9.56 ± 1.80 nmol/gtissue in [6] (setting [17]) and 11.74 ± 2.25 nmol/gtissue in series [6] (setting [18]). Moreover, the “Writhing test (% inh.)” value in series [3] (25 mg/kg oral) is 54%. Moreover, the “Writhing test (Mean ± SEM)” value in series [3] (25 mg/kg oral) was found to be 8.0 ± 1.3. In series [4] (celecoxib 25 mg/kg), the Ulcer score is given as 0/5. For the same molecule, the GSH in [7] (setting [11]) is given as 22.36 ± 2.45 µmol/g tissue; in series [7] (setting [12]), 20.2 ± 3.26 µmol/g tissue; in series [7] (setting [13]), 28.06 ± 1.45 µmol/g tissue; in series [7] (setting [14]) it was 26.42 ± 3.46 µmol/g tissue; in series [7] (setting [15]), 22.24 ± 4.17 µmol/g tissue; in [7] (setting [16]) it was 21.68 ± 5.56 µmol/g tissue. Also, the GSH in series [7] (setting [17]) is 20.58 ± 4.25 µmol/g tissue; in series [7] (setting [18]), 22.14 ± 1.04 µmol/g tissue. Also, the SOD in series [8] (setting [11]) turned out to be 24.84 ± 10.65 U/g tissue; in [8] (setting [12]), 20.41 ± 13.73 U/g tissue; in series [8] (setting [13]), 16.85 ± 5.24 U/g tissue; in series [8] (setting [14]), 19.04 ± 5.60 U/g tissue; in series [8] (setting [15]) it was 17.79 ± 7.47 U/g tissue; in [8] (setting [16]), 16.83 ± 9.71 U/g tissue. Further, the SOD was 22.78 ± 14.45 U/g tissue in [8] (setting [17]) and 13.60 ± 11.98 U/g tissue in [8] (setting [18]). The MPO in [9] (setting [11]) came to 0.60 ± 0.23 U/gtissue; in series [9] (setting [12]), 1.48 ± 0.46 U/gtissue; in series [9] (setting [13]), 0.52 ± 0.26 U/gtissue; in series [9] (setting [14]), 0.46 ± 0.26 U/gtissue; in [9] (setting [15]), 3.36 ± 1.57 U/g tissue; in [9] (setting [16]) it was 4.75 ± 1.59 U/g tissue. Besides, the values for the MPO in [9] (setting [17]) and in series [9] (setting [18]) were 0.63 ± 0.30 U/gtissue and 0.19 ± 0.06 U/gtissue, respectively.
